Measurements taken from the supplement of paper PMC7224384.

Key:
MDA-MB-453 [1] = test: drug sensitivity score (DSS), in combination with BLU9931 (DSS (weighted AUC score)); higher = more sensitive (stronger viability decrease); extreme values may be limits of the assay; conditions: BLU9931 100 nM; 72 h
Outline: (§1)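 Compounds from the FIMM Oncology set were predispensed in singlicate at five 10-fold dilutions (10,000-fold range) on 384-well plates. Each well then received 2000 MDA-MB-453 cells in medium with or without an FGFR4 inhibitor (100 nM final) and was kept at 37 °C, 5% CO2. Cellular ATP was read with CellTiterGlo 2.0 after 72 h and normalised per plate to percent viability from control wells. The drug sensitivity score is a weighted area under a four-parameter logistic fit.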

MDA-MB-453 [2] = test: drug sensitivity score (DSS), single agent (DSS (weighted AUC score)); higher = more sensitive (stronger viability decrease); extreme values may be limits of the assay; conditions: BLU9931 0 nM; 72 h
Outline: as §1

Work on `C#Cc1cccc(Nc2ncnc3cc(OCCOC)c(OCCOC)cc23)c1` [Erlotinib] yielded a drug sensitivity score (MDA-MB-453 [1]) of 4.7 and a drug sensitivity score (MDA-MB-453 [2]) of 2.7.
Work on `Cn1cc(C2=C(c3cn(C4CCN(Cc5ccccn5)CC4)c4ccccc34)C(=O)NC2=O)c2ccccc21` [Enzastaurin] yielded a drug sensitivity score (MDA-MB-453 [1]) of 0 and a drug sensitivity score (MDA-MB-453 [2]) of 0.
`CC(C)C[C@H](NC(=O)[C@H](Cc1ccccc1)NC(=O)c1cnccn1)B(O)O` [Bortezomib] showed a drug sensitivity score (MDA-MB-453 [1]) of 20.1 and a drug sensitivity score (MDA-MB-453 [2]) of 21.3.
With `CCCN(CCC)C(=O)C1=Cc2ccc(-c3ccc(C(=O)N4CCCC4)cc3)cc2N=C(N)C1` [Motolimod] the drug sensitivity score (MDA-MB-453 [1]) was 0 and the drug sensitivity score (MDA-MB-453 [2]) was 0.1.
`O=C(NCc1ccncc1)C12CC3CC(C1)CC(c1ccc(Cl)cc1)(C3)C2` showed a drug sensitivity score (MDA-MB-453 [1]) of 0 and a drug sensitivity score (MDA-MB-453 [2]) of 1.1.
Molecule `C[C@@H]1C[C@H]2[C@@H]3CCC4=CC(=O)C=C[C@]4(C)[C@@]3(F)[C@@H](O)C[C@]2(C)[C@@]1(O)C(=O)CO` [Dexamethasone] has a drug sensitivity score (MDA-MB-453 [1]) of 0 and a drug sensitivity score (MDA-MB-453 [2]) of 4.
Work on `Cn1cc(C2=Nc3cc(NC(=O)C(N)C4CCCCC4)cc4c3C2=CNNC4=O)cn1` (centres undefined) yielded a drug sensitivity score (MDA-MB-453 [1]) of 9.9 and a drug sensitivity score (MDA-MB-453 [2]) of 14.4.
For `CN1CCC(CNc2ccc3ncc(-c4cccc(OC(F)(F)F)c4)n3n2)CC1` [SGI-1776], the drug sensitivity score (MDA-MB-453 [1]) was 5.8 and the drug sensitivity score (MDA-MB-453 [2]) was 6.6.
`CCCCC(=O)OCC(=O)[C@]1(O)Cc2c(O)c3c(c(O)c2[C@@H](O[C@H]2C[C@H](NC(=O)C(F)(F)F)[C@H](O)[C@H](C)O2)C1)C(=O)c1c(OC)cccc1C3=O` [Valrubicin] gave a drug sensitivity score (MDA-MB-453 [1]) of 8 and a drug sensitivity score (MDA-MB-453 [2]) of 8.6.
With `CC(C)(C)c1nc(-c2cccc(NS(=O)(=O)c3c(F)cccc3F)c2F)c(-c2ccnc(N)n2)s1` [Dabrafenib] the drug sensitivity score (MDA-MB-453 [1]) was 0.4 and the drug sensitivity score (MDA-MB-453 [2]) was 1.5.
`CCN(CC)Cc1ccc2cc(COC(=O)Nc3ccc(C(=O)NO)cc3)ccc2c1` [Givinostat] was tested, and the drug sensitivity score (MDA-MB-453 [1]) was 10.3 and the drug sensitivity score (MDA-MB-453 [2]) was 11.
`NC[C@@](O)(c1ccc(Cl)cc1)c1ccc(-c2cn[nH]c2)cc1` was tested, and the drug sensitivity score (MDA-MB-453 [1]) was 2.4 and the drug sensitivity score (MDA-MB-453 [2]) was 1.3.
In the case of `COc1cc2nccc(Oc3ccc(NC(=O)NC4CC4)c(Cl)c3)c2cc1C(N)=O` [Lenvatinib], the drug sensitivity score (MDA-MB-453 [1]) is reported as 0.9 and the drug sensitivity score (MDA-MB-453 [2]) is reported as 3.9.
`CCc1c2c(nc3ccc(O)cc13)-c1cc3c(c(=O)n1C2)COC(=O)[C@]3(O)CC` [SN-38] was tested, and the drug sensitivity score (MDA-MB-453 [1]) was 26.2 and the drug sensitivity score (MDA-MB-453 [2]) was 28.8.
`CC[C@@H]1C(=O)OC[C@@H]1Cc1cncn1C` [Pilocarpine] was tested, and the drug sensitivity score (MDA-MB-453 [1]) was 0.2 and the drug sensitivity score (MDA-MB-453 [2]) was 1.2.
Work on `CC(C)n1cnc2c(NCCc3ccc(O)cc3)nc(-c3csc4ccccc34)nc21` [StemRegenin 1] yielded a drug sensitivity score (MDA-MB-453 [1]) of 0.4 and a drug sensitivity score (MDA-MB-453 [2]) of 0.3.
With `O=C1NC(=O)[C@@H](c2cn3c4c(cccc24)CCC3)[C@@H]1c1c[nH]c2ccccc12` [Tivantinib] the drug sensitivity score (MDA-MB-453 [1]) was 2 and the drug sensitivity score (MDA-MB-453 [2]) was 4.4.
`O=C(CCCCCCC(=O)Nc1ccccc1)NO` [Vorinostat] was tested, and the drug sensitivity score (MDA-MB-453 [1]) was 15.6 and the drug sensitivity score (MDA-MB-453 [2]) was 16.4.
With `CNC(=O)c1ccc(N2C(=S)N(c3cnc(C#N)c(C(F)(F)F)c3)C(=O)C23CCC3)cc1F` [Apalutamide] the drug sensitivity score (MDA-MB-453 [1]) was 0 and the drug sensitivity score (MDA-MB-453 [2]) was 0.
With `CC(=O)Nc1ccc(C(=O)Nc2ccccc2N)cc1` [Tacedinaline] the drug sensitivity score (MDA-MB-453 [1]) was 0.4 and the drug sensitivity score (MDA-MB-453 [2]) was 1.3.
In the case of `O=C(O)c1ccc(CN2CCC(CN[C@@H]3C[C@H]3c3ccccc3)CC2)cc1`, the drug sensitivity score (MDA-MB-453 [1]) is reported as 0 and the drug sensitivity score (MDA-MB-453 [2]) is reported as 0.3.
`CNC(=O)c1ccc(N2C(=S)N(c3ccc(C#N)c(C(F)(F)F)c3)C(=O)C2(C)C)cc1F` [Enzalutamide] was tested, and the drug sensitivity score (MDA-MB-453 [1]) was 0 and the drug sensitivity score (MDA-MB-453 [2]) was 1.3.
`COc1ccc(-c2ccc3ncc4c(c3c2)n(-c2ccc(N3CCNCC3)c(C(F)(F)F)c2)c(=O)n4C)cn1` [NVP-BGT226] showed a drug sensitivity score (MDA-MB-453 [1]) of 24.4 and a drug sensitivity score (MDA-MB-453 [2]) of 24.8.
`Cc1cc(F)c(C(=O)Nc2cccc(-c3nncn3C(C)C)n2)cc1-n1cnc(C2CC2)c1` [Selonsertib] showed a drug sensitivity score (MDA-MB-453 [1]) of 0 and a drug sensitivity score (MDA-MB-453 [2]) of 0.
Work on `O=C(/C=C/c1cccc(S(=O)(=O)Nc2ccccc2)c1)NO` [Belinostat] yielded a drug sensitivity score (MDA-MB-453 [1]) of 20.2 and a drug sensitivity score (MDA-MB-453 [2]) of 21.3.
`Oc1ncnc2[nH]ncc12` [Allopurinol] was tested, and the drug sensitivity score (MDA-MB-453 [1]) was 0.3 and the drug sensitivity score (MDA-MB-453 [2]) was 0.1.
`Cc1c2oc3c(C)ccc(C(=O)N[C@@H]4C(=O)N[C@H](C(C)C)C(=O)N5CCC[C@H]5C(=O)N(C)CC(=O)N(C)[C@@H](C(C)C)C(=O)O[C@@H]4C)c3nc-2c(C(=O)N[C@@H]2C(=O)N[C@H](C(C)C)C(=O)N3CCC[C@H]3C(=O)N(C)CC(=O)N(C)[C@@H](C(C)C)C(=O)O[C@@H]2C)c(N)c1=O` [Dactinomycin] showed a drug sensitivity score (MDA-MB-453 [1]) of 22 and a drug sensitivity score (MDA-MB-453 [2]) of 21.
With `CC(C)(O)CC(=O)NCCn1ccc2ncnc(Nc3ccc(Oc4cccc(C(F)(F)F)c4)c(Cl)c3)c21` [TAK-285] the drug sensitivity score (MDA-MB-453 [1]) was 6.4 and the drug sensitivity score (MDA-MB-453 [2]) was 5.4.
`CCCCCOC(=O)Nc1nc(=O)n([C@@H]2O[C@H](C)[C@@H](O)[C@H]2O)cc1F` [Capecitabine] gave a drug sensitivity score (MDA-MB-453 [1]) of 0.2 and a drug sensitivity score (MDA-MB-453 [2]) of 2.3.
Work on `COc1cc2nccc(Oc3ccc(NC(=O)C4(C(=O)Nc5ccc(F)cc5)CC4)cc3)c2cc1OC` [Cabozantinib] yielded a drug sensitivity score (MDA-MB-453 [1]) of 1.6 and a drug sensitivity score (MDA-MB-453 [2]) of 1.3.
In the case of `Cn1c(=O)n(-c2ccc(C(C)(C)C#N)cc2)c2c3cc(-c4cnc5ccccc5c4)ccc3ncc21` [Dactolisib], the drug sensitivity score (MDA-MB-453 [1]) is reported as 18.3 and the drug sensitivity score (MDA-MB-453 [2]) is reported as 16.3.
`O=C(c1cccc(Cl)c1F)N1CCN(Cc2cccc(Nc3nccs3)n2)CC1` [MK-8745] was tested, and the drug sensitivity score (MDA-MB-453 [1]) was 2.4 and the drug sensitivity score (MDA-MB-453 [2]) was 5.4.
Molecule `COc1cc2c(Nc3ccc(Cl)c(Cl)c3F)ncnc2cc1OC[C@@H]1C[C@@H]2CN(C)C[C@@H]2C1` [Tesevatinib] has a drug sensitivity score (MDA-MB-453 [1]) of 11.5 and a drug sensitivity score (MDA-MB-453 [2]) of 7.6.
With `CN(C)CCOc1ccc(/C(=C(/CCCl)c2ccccc2)c2ccccc2)cc1` [Toremifene] the drug sensitivity score (MDA-MB-453 [1]) was 4.1 and the drug sensitivity score (MDA-MB-453 [2]) was 6.
`Clc1ccccc1C(c1ccccc1)(c1ccccc1)n1cccn1` [TRAM-34] showed a drug sensitivity score (MDA-MB-453 [1]) of 0.6 and a drug sensitivity score (MDA-MB-453 [2]) of 1.6.
In the case of `Nc1nc2[nH]cc(CCc3ccc(C(=O)N[C@@H](CCC(=O)O)C(=O)O)cc3)c2c(=O)[nH]1` [Pemetrexed], the drug sensitivity score (MDA-MB-453 [1]) is reported as 1.8 and the drug sensitivity score (MDA-MB-453 [2]) is reported as 5.4.
Work on `COc1cccc2c1C(=O)c1c(O)c3c(c(O)c1C2=O)C[C@@](O)(C(=O)CO)C[C@@H]3O[C@H]1C[C@H](N)[C@@H](O)[C@H](C)O1` [Epirubicin] yielded a drug sensitivity score (MDA-MB-453 [1]) of 5.9 and a drug sensitivity score (MDA-MB-453 [2]) of 7.3.
Molecule `CC(C)(C)NC(=O)[C@H]1CC[C@H]2[C@@H]3CC[C@H]4NC(=O)C=C[C@]4(C)[C@H]3CC[C@]12C` [Finasteride] has a drug sensitivity score (MDA-MB-453 [1]) of 0 and a drug sensitivity score (MDA-MB-453 [2]) of 0.3.
Molecule `CCN(CC)CCCC(C)Nc1c2ccc(Cl)cc2nc2ccc(OC)cc12` (centres undefined) [Mepacrine] has a drug sensitivity score (MDA-MB-453 [1]) of 14.7 and a drug sensitivity score (MDA-MB-453 [2]) of 16.2.
`Clc1ccc(Nc2nnc(Cc3ccncc3)c3ccccc23)cc1` [Vatalanib] gave a drug sensitivity score (MDA-MB-453 [1]) of 0.3 and a drug sensitivity score (MDA-MB-453 [2]) of 0.8.
Work on `N#Cc1ccc2[nH]c(O)c(-c3ccc(CN4CCOCC4)cn3)c2c1` [AZD-1080] yielded a drug sensitivity score (MDA-MB-453 [1]) of 0 and a drug sensitivity score (MDA-MB-453 [2]) of 0.
In the case of `Cc1cc([C@@H](C)Nc2ccccc2C(=O)O)c2nc(N3CCOCC3)cc(=O)n2c1` [AZD-6482], the drug sensitivity score (MDA-MB-453 [1]) is reported as 7.4 and the drug sensitivity score (MDA-MB-453 [2]) is reported as 7.5.
